Assay results from ChEMBL document CHEMBL3045679, “Microwave-assisted synthesis and pharmacological studies of novel 5-deazaalloxazine derivatives” (2012).
≈ marks a conversion by molar mass, not a printed value. Calls of active or inactive are those of the source. The calls are words filed in the database; no cut-off is given here.

How the values were obtained:
Lipomyces lipofer [1] = assay: Antifungal activity against Lipomyces lipofer NCIM 3252 at 1000 ug/disk after 72 hr by disk diffusion method; assay type: functional; details: NCIM 3252, 72 h, read-out: DIZ
Lipomyces lipofer [2] = assay: Antifungal activity against Lipomyces lipofer NCIM 3252 at 500 ug/disk after 72 hr by disk diffusion method; assay type: functional
Candida albicans [3] = assay: Antifungal activity against Candida albicans NCIM 3471 at 1000 ug/disk after 72 hr by disk diffusion method; assay type: functional; details: NCIM 3471, 72 h, read-out: DIZ
Candida albicans [4] = assay: Antifungal activity against Candida albicans NCIM 3471 at 500 ug/disk after 72 hr by disk diffusion method; assay type: functional
Rhodotorula mucilaginosa [5] = assay: Antifungal activity against Rhodotorula mucilaginosa NCIM 3174 at 1000 ug/disk after 72 hr by disk diffusion method; assay type: functional; details: NCIM 3174, 72 h, read-out: DIZ
Rhodotorula mucilaginosa [6] = assay: Antifungal activity against Rhodotorula mucilaginosa NCIM 3174 at 500 ug/disk after 72 hr by disk diffusion method; assay type: functional
Aspergillus flavus [7] = assay: Antifungal activity against Aspergillus flavus NCIM 535 at 1000 ug/disk after 72 hr by disk diffusion method; assay type: functional; details: NCIM 535, 72 h, read-out: DIZ
Aspergillus flavus [8] = assay: Antifungal activity against Aspergillus flavus NCIM 535 at 500 ug/disk after 72 hr by disk diffusion method; assay type: functional; details: NCIM 535, 72 h, read-out: DIZ
Aspergillus niger [9] = assay: Antifungal activity against Aspergillus niger NCIM 1196 at 1000 ug/disk after 72 hr by disk diffusion method; assay type: functional
Aspergillus niger [10] = assay: Antifungal activity against Aspergillus niger NCIM 1196 at 500 ug/disk after 72 hr by disk diffusion method; assay type: functional
Penicillium chrysogenum [11] = assay: Antifungal activity against Penicillium chrysogenum NCIM 707 at 1000 ug/disk after 72 hr by disk diffusion method; assay type: functional; details: NCIM 707, 72 h, read-out: DIZ
Penicillium chrysogenum [12] = assay: Antifungal activity against Penicillium chrysogenum NCIM 707 at 500 ug/disk after 72 hr by disk diffusion method; assay type: functional
Streptomyces albus [13] = assay: Antibacterial activity against Streptomyces albus NCIM 2178 at 1000 ug/disk after 24 hr by disk diffusion method; assay type: functional; details: NCIM 2178, 24 h, read-out: DIZ
Streptomyces albus [14] = assay: Antibacterial activity against Streptomyces albus NCIM 2178 at 500 ug/disk after 24 hr by disk diffusion method; assay type: functional, organism-based
Bacillus cereus [15] = assay: Antibacterial activity against Bacillus cereus NCIM 2155 at 1000 ug/disk after 24 hr by disk diffusion method; assay type: functional; details: NCIM 2155, 24 h, read-out: DIZ
Bacillus cereus [16] = assay: Antibacterial activity against Bacillus cereus NCIM 2155 at 500 ug/disk after 24 hr by disk diffusion method; assay type: functional; details: NCIM 2155, 24 h, read-out: DIZ
Bacillus subtilis [17] = assay: Antibacterial activity against Bacillus subtilis NCIM 2063 at 1000 ug/disk after 24 hr by disk diffusion method; assay type: functional; details: NCIM 2063, 24 h, read-out: DIZ
Bacillus subtilis [18] = assay: Antibacterial activity against Bacillus subtilis NCIM 2063 at 500 ug/disk after 24 hr by disk diffusion method; assay type: functional
Klebsiella aerogenes [19] = assay: Antibacterial activity against Enterobacter aerogenes NCIM 2239 at 1000 ug/disk after 24 hr by disk diffusion method; assay type: functional; details: NCIM 2239, 24 h, read-out: DIZ
Klebsiella aerogenes [20] = assay: Antibacterial activity against Enterobacter aerogenes NCIM 2239 at 500 ug/disk after 24 hr by disk diffusion method; assay type: functional
Pseudomonas aeruginosa [21] = assay: Antibacterial activity against Pseudomonas aeruginosa NCIM 2200 at 1000 ug/disk after 24 hr by disk diffusion method; assay type: functional; details: NCIM 2200, 24 h, read-out: DIZ
Pseudomonas aeruginosa [22] = assay: Antibacterial activity against Pseudomonas aeruginosa NCIM 2200 at 500 ug/disk after 24 hr by disk diffusion method; assay type: functional
Escherichia coli [23] = assay: Antibacterial activity against Escherichia coli NCIM 2065 at 1000 ug/disk after 24 hr by disk diffusion method; assay type: functional; details: NCIM 2065, 24 h, read-out: DIZ
Escherichia coli [24] = assay: Antibacterial activity against Escherichia coli NCIM 2065 at 500 ug/disk after 24 hr by disk diffusion method; assay type: functional; details: NCIM 2065, 24 h, read-out: DIZ
Bacillus subtilis [25] = assay: Antibacterial activity against Bacillus subtilis NCIM 2063 after 24 hr by broth dilution assay; assay type: functional; details: NCIM 2063, 24 h
Klebsiella aerogenes [26] = assay: Antibacterial activity against Enterobacter aerogenes NCIM 2239 after 24 hr by broth dilution assay; assay type: functional; details: NCIM 2239, 24 h
Pseudomonas aeruginosa [27] = assay: Antibacterial activity against Pseudomonas aeruginosa NCIM 2200 after 24 hr by broth dilution assay; assay type: functional; details: NCIM 2200, 24 h
Escherichia coli [28] = assay: Antibacterial activity against Escherichia coli NCIM 2065 after 24 hr by broth dilution assay; assay type: functional; details: NCIM 2065, 24 h
Lipomyces lipofer [29] = assay: Antifungal activity against Lipomyces lipofer NCIM 3252 after 72 hr by broth dilution assay; assay type: functional; details: NCIM 3252, 72 h
Candida albicans [30] = assay: Antifungal activity against Candida albicans NCIM 3471 after 72 hr by broth dilution assay; assay type: functional; details: NCIM 3471, 72 h
Rhodotorula mucilaginosa [31] = assay: Antifungal activity against Rhodotorula mucilaginosa NCIM 3174 after 72 hr by broth dilution assay; assay type: functional; details: NCIM 3174, 72 h
Aspergillus flavus [32] = assay: Antifungal activity against Aspergillus flavus NCIM 535 after 72 hr by broth dilution assay; assay type: functional; details: NCIM 535, 72 h
Aspergillus niger [33] = assay: Antifungal activity against Aspergillus niger NCIM 1196 after 72 hr by broth dilution assay; assay type: functional; details: NCIM 1196, 72 h
Penicillium chrysogenum [34] = assay: Antifungal activity against Penicillium chrysogenum NCIM 707 after 72 hr by broth dilution assay; assay type: functional; details: NCIM 707, 72 h
Streptomyces albus [35] = assay: Antibacterial activity against Streptomyces albus NCIM 2178 after 24 hr by broth dilution assay; assay type: functional; details: NCIM 2178, 24 h
Bacillus cereus [36] = assay: Antibacterial activity against Bacillus cereus NCIM 2155 after 24 hr by broth dilution assay; assay type: functional; details: NCIM 2155, 24 h

Compound | zone of inhibition at 1000 µg/disc (Lipomyces lipofer [1]) | zone of inhibition at 1000 µg/disc (Candida albicans [3]) | diameter of the inhibition zone (DIZ) (Candida albicans [4]) | zone of inhibition at 1000 µg/disc (Rhodotorula mucilaginosa [5]) | zone of inhibition at 1000 µg/disc (Aspergillus flavus [7]) | zone of inhibition at 500 µg/disc (Aspergillus flavus [8]) | diameter of the inhibition zone (DIZ) (Aspergillus niger [10]) | zone of inhibition at 1000 µg/disc (Penicillium chrysogenum [11]) | zone of inhibition at 1000 µg/disc (Streptomyces albus [13]) | diameter of the inhibition zone (DIZ) (Streptomyces albus [14]) | zone of inhibition at 1000 µg/disc (Bacillus cereus [15]) | zone of inhibition at 500 µg/disc (Bacillus cereus [16]) | zone of inhibition at 1000 µg/disc (Bacillus subtilis [17]) | diameter of the inhibition zone (DIZ) (Bacillus subtilis [18]) | zone of inhibition at 1000 µg/disc (Klebsiella aerogenes [19]) | zone of inhibition at 1000 µg/disc (Pseudomonas aeruginosa [21]) | zone of inhibition at 1000 µg/disc (Escherichia coli [23]) | zone of inhibition at 500 µg/disc (Escherichia coli [24]) | MIC (Bacillus subtilis [25]) | MIC (Klebsiella aerogenes [26]) | also measured
Cc1cccc2cc3c(=O)[nH]c(=O)[nH]c3nc12 | 13 mm | 11 mm | inactive | 13 mm | 13 mm | 9 mm | inactive | 9 mm | 10 mm | inactive | 12 mm | 11 mm | 10 mm | inactive | 13 mm | 11 mm | 15 mm | 14 mm | 31.2 µg/mL (≈ 137 µM) | 15.6 µg/mL (≈ 68.7 µM) | diameter of the inhibition zone (DIZ) (Lipomyces lipofer [2]): inactive; diameter of the inhibition zone (DIZ) (Rhodotorula mucilaginosa [6]): inactive; diameter of the inhibition zone (DIZ) (Aspergillus niger [9]): inactive; diameter of the inhibition zone (DIZ) (Penicillium chrysogenum [12]): inactive; diameter of the inhibition zone (DIZ) (Klebsiella aerogenes [20]): inactive; diameter of the inhibition zone (DIZ) (Pseudomonas aeruginosa [22]): inactive; MIC (Pseudomonas aeruginosa [27]): 7.8 µg/mL (≈ 34.3 µM); MIC (Escherichia coli [28]): 3.9 µg/mL (≈ 17.2 µM); MIC (Lipomyces lipofer [29]): 31.2 µg/mL (≈ 137 µM); MIC (Candida albicans [30]): 31.2 µg/mL (≈ 137 µM); MIC (Rhodotorula mucilaginosa [31]): 15.6 µg/mL (≈ 68.7 µM); MIC (Aspergillus flavus [32]): 7.8 µg/mL (≈ 34.3 µM); MIC (Aspergillus niger [33]): 125 µg/mL (≈ 550 µM); MIC (Penicillium chrysogenum [34]): 62.5 µg/mL (≈ 275 µM); MIC (Streptomyces albus [35]): 62.5 µg/mL (≈ 275 µM); MIC (Bacillus cereus [36]): 15.6 µg/mL (≈ 68.7 µM)
O=c1[nH]c(=S)[nH]c2nc3ccccc3cc12 | 12 mm | 11 mm | inactive | 12 mm | 15 mm | 9 mm | inactive | 12 mm | 12 mm | inactive | 11 mm | 8 mm | 10 mm | inactive | 13 mm | 11 mm | 10 mm | 9 mm | 62.5 µg/mL (≈ 273 µM) | 3.9 µg/mL (≈ 17 µM) | zone of inhibition at 500 µg/disc (Lipomyces lipofer [2]; NCIM 3252, 72 h, read-out: DIZ): 9 mm; zone of inhibition at 500 µg/disc (Rhodotorula mucilaginosa [6]; NCIM 3174, 72 h, read-out: DIZ): 10 mm; zone of inhibition at 1000 µg/disc (Aspergillus niger [9]; NCIM 1196, 72 h, read-out: DIZ): 10 mm; zone of inhibition at 500 µg/disc (Penicillium chrysogenum [12]; NCIM 707, 72 h, read-out: DIZ): 10 mm; zone of inhibition at 500 µg/disc (Klebsiella aerogenes [20]; NCIM 2239, 24 h, read-out: DIZ): 10 mm; zone of inhibition at 500 µg/disc (Pseudomonas aeruginosa [22]; NCIM 2200, 24 h, read-out: DIZ): 10 mm; MIC (Pseudomonas aeruginosa [27]): 31.2 µg/mL (≈ 136 µM); MIC (Escherichia coli [28]): 31.2 µg/mL (≈ 136 µM); MIC (Lipomyces lipofer [29]): 125 µg/mL (≈ 545 µM); MIC (Candida albicans [30]): 125 µg/mL (≈ 545 µM); MIC (Rhodotorula mucilaginosa [31]): 15.6 µg/mL (≈ 68 µM); MIC (Aspergillus flavus [32]): 7.8 µg/mL (≈ 34 µM); MIC (Penicillium chrysogenum [34]): 7.8 µg/mL (≈ 34 µM); MIC (Streptomyces albus [35]): 62.5 µg/mL (≈ 273 µM); MIC (Bacillus cereus [36]): 31.2 µg/mL (≈ 136 µM)
